In US8541406B2, “Thiadiazole derivatives for the treatment of neurodegenerative diseases” (NV reMYND, priority 2006, dated 2013):
“Also recorded” adds a separate entry of the source.

Key:
M17-SYNwt cells = experiment: α-synuclein cytotoxicity assay (LDH leakage from paraquat-treated cells); type: cell-based, human; settings: for EC50: Homo sapiens; for % I: percent inhibition of synuclein cytotoxicity, LDH release, at most effective concentration of test cmpd
Procedure: 1,2,4-thiadazole compounds made according to the methods described herein were screened for activity using the α-synuclein cytotoxicity assay as described above. Dose responses were carried out on all compounds found to be active (10 point curves in duplicate).

[1] = tested on: dopaminergic substantia nigra neurons; experiment: In vivo inhibition of paraquat-triggered loss of substantia nigra neurons (TH immunohistochemistry); settings: mice, paraquat intraperitoneal, compound not higher than 20 mg/kg body weight/day, 8 weeks, versus vehicle
Procedure: In order to model neuronal loss in the substantia nigra region of the brain, mice were treated with paraquat (intraperitoneal) at a dose not higher than 8 mg/kg/day for a continuous period of 15-100 days. These mice were also chronically co-treated during that period with: • compound 60 (1-[4-methoxyphenylsulfonyl]-4-[3-(4-methylbenzyl)-1,2,4-thiadiazol-5-yl]-2-methylpiperazine), or • compound 32 (1-[4-methoxyphenylsulfonyl]-4-[3-(4-fluorobenzyl)-1,2,4-thiadiazol-5-yl]piperazine), or • compound 53 (1-[4-methoxyphenylsulfonyl]-4-[3-(3-methoxy-benzyl)-1,2,4-thiadiazol-5-yl]piperazine), each being administered at a dose not higher than 20 mg/kg body weight/day), or by vehicle only (no active compound). Mice treatment by means of vehicle or a compound of the invention started 2 days before administration of paraquat.
At the end of the treatment period, mice were sacrificed and the corresponding brains were used for immunohistochemical analysis. […] Using antibodies raised against tyrosin hydroxylase (anti-tyrosin hydroxylase), tyrosine hydroxylase containing neurons in the brains were detected.
Three groups of mice were treated with either paraquat and compound 53 (group 3; n=6), or paraquat and vehicle of compound 53 (group 2; n=4), or vehicle paraquat and vehicle of compound 53 (group 1; n=3). […] Per mouse, the median % TH-positive areas (of the substantia nigra regions) was determined. […]

[2] = inhibition of synuclein cytotoxicity, paraquat-treated M17-SYNwt cells, 10 point curves in duplicate
[3] = paraquat-treated M17-SYNwt cells
[4] = Table 3, tested according to the procedure of example 12

Structure (SMILES)	EC50 (M17-SYNwt cells; [2]) [µg/mL]	% I (M17-SYNwt cells; [3]) [%]	other results
Cc1ccccc1NC(=O)N1CCN(c2nc(Cc3ccc(F)cc3)ns2)CC1C (stereo not drawn) [Compound 10, N-(2-methylphenyl)-4-[3-(4-fluorobenzyl)-1,2,4-thiadiazol-5-yl]-2-methylpiperazine-1-carboxamide]	0.6	–	–
CCOc1ccc(NC(=O)N2CCN(c3nc(Cc4ccc(F)cc4)ns3)CC2C)cc1 (stereo not drawn) [Compound 14, N-(4-ethoxyphenyl)-4-[3-(4-fluorobenzyl)-1,2,4-thiadiazol-5-yl]-2-methylpiperazine-1-carboxamide]	–	70	–
Cc1cccc(C)c1NC(=O)N1CCN(c2nc(Cc3ccc(F)cc3)ns2)CC1C (stereo not drawn) [Compound 19, N-(2,6-dimethylphenyl)-4-[3-(4-fluorobenzyl)-1,2,4-thiadiazol-5-yl]-2-methylpiperazine-1-carboxamide]	0.2	–	reduction of LDH activity in the medium (inhibition of α-synuclein mediated toxicity), FIG. 2 (M17-SYNwt cells; paraquat-treated M17-SYNwt cells, dose response): inhibition of α-synuclein mediated toxicity; also recorded: able, in a dose-dependent manner, to reduce LDH activity in the medium
CC1CN(c2nc(Cc3ccc(F)cc3)ns2)CCN1C(=O)Nc1ccc(F)c(F)c1 (stereo not drawn) [Compound 26, N-(3,4-difluorophenyl)-4-[3-(4-fluorobenzyl)-1,2,4-thiadiazol-5-yl]-2-methylpiperazine-1-carboxamide]	–	70	–
Cc1ccc(Cc2nsc(N3CCN(S(=O)(=O)c4cc(Cl)ccc4Cl)C(C)C3)n2)cc1 (stereo not drawn) [Compound 36, 1-[2,5-dichlorophenylsulfonyl]-4-[3-(4-methylbenzyl)-1,2,4-thiadiazol-5-yl]-2-methylpiperazine]	0.1	–	–
CC1CN(c2nc(Cc3ccc(F)cc3)ns2)CCN1S(=O)(=O)c1cccc(C(F)(F)F)c1 (stereo not drawn) [Compound 46, 1-[3-trifluorophenylsulfonyl]-4-[3-(4-fluorobenzyl)-1,2,4-thiadiazol-5-yl]-2-methylpiperazine]	1.34	64	–
O=S(=O)(c1ccc2ccccc2c1)N1CCN(c2nc(Cc3ccc(Cl)cc3)ns2)CC1 [Compound 52, 1-[2-naphthylsulfonyl]-4-[3-(4-chlorobenzyl)-1,2,4-thiadiazol-5-yl]piperazine]	0.1	–	–
COc1ccc(S(=O)(=O)N2CCN(c3nc(Cc4cccc(OC)c4)ns3)CC2)cc1 [Compound 53, 1-[4-methoxyphenylsulfonyl]-4-[3-(3-methoxybenzyl)-1,2,4-thiadiazol-5-yl]piperazine]	0.00066	–	protection of TH-positive substantia nigra area against paraquat-triggered degeneration [1]: inhibition of paraquat-triggered degeneration of substantia nigra cells; also recorded: protects dopaminergic substantia nigra neurons against paraquat-triggered degeneration
CC1CN(c2nc(Cc3ccc(F)cc3)ns2)CCN1S(=O)(=O)c1ccc(C(C)(C)C)cc1 (stereo not drawn) [Compound 54, 1-[4-tert-butylphenylsulfonyl]-4-[3-(4-fluorobenzyl)-1,2,4-thiadiazol-5-yl]-2-methylpiperazine]	–	60	–
CC(C)(C)c1ccc(S(=O)(=O)N2CCN(c3nc(Cc4ccc(F)cc4)ns3)CC2)cc1 [Compound 61, 1-[4-ter-butylphenylsulfonyl]-4-[3-(4-fluorobenzyl)-1,2,4-thiadiazol-5-yl]piperazine]	–	47	–
O=S(=O)(Cc1ccccc1)N1CCN(c2nc(Cc3ccc(Cl)cc3)ns2)CC1 [Compound 76, 1-(benzylsulfonyl)-4-[3-(4-chlorobenzyl)-1,2,4-thiadiazol-5-yl]piperazine]	–	40	–
CCCCS(=O)(=O)N1CCN(c2nc(Cc3ccc(Cl)cc3)ns2)CC1 [Compound 81, 1-(butylsulfonyl)-4-[3-(4-chlorobenzyl)-1,2,4-thiadiazol-5-yl]piperazine]	–	80	–
CCCCCCCCS(=O)(=O)N1CCN(c2nc(Cc3ccc(C)cc3)ns2)CC1 [Compound 82, 1-(octylsulfonyl)-4-[3-(4-methylbenzyl)-1,2,4-thiadiazol-5-yl]piperazine]	–	50	–
CC1CN(c2nc(Cc3ccc(F)cc3)ns2)CCN1C(=O)CCc1ccccc1 (stereo not drawn) [Compound 89, 1-(3-phenylpropanoyl)-4-[3-(4-fluorobenzyl)-1,2,4-thiadiazol-5-yl]-2-methylpiperazine]	0.6	–	–
Cc1ccc(Cc2nsc(N3CCN(C/C=C/c4ccccc4)CC3)n2)cc1 [Compound 91, 1-[3-phenylprop-2-enyl]-4-[3-(4-methylbenzyl)-1,2,4-thiadiazol-5-yl]piperazine]	–	90	–
CCCCCc1ccc(C(=O)NCCN2CCN(c3nc(Cc4ccc(F)cc4)ns3)CC2)cc1 [Compound 94, 4-pentyl-N-{2-[4-[3-(4-fluorobenzyl)-1,2,4-thiadiazol-5-yl]piperazin-1-yl]ethyl}benzamide]	–	90	–

Structure (SMILES)	EC50 (M17-SYNwt cells; [2]) [µg/mL]	% I (M17-SYNwt cells; [3]) [%]	other results
CCCCCCc1ccc(C(=O)NCCN2CCN(c3nc(Cc4ccc(F)cc4)ns3)CC2)cc1 [Compound 96, 4-hexyl-N-{2-[4-[3-(4-fluorobenzyl)-1,2,4-thiadiazol-5-yl]piperazin-1-yl]ethyl}benzamide]	0.8	–	–
O=C(NCCN1CCN(c2nc(Cc3ccc(F)cc3)ns2)CC1)c1ccc(F)cc1 [Compound 102, 4-fluoro-N-{2-[4-[3-(4-fluorobenzyl)-1,2,4-thiadiazol-5-yl]piperazin-1-yl]ethyl}benzamide]	–	80	–
O=C(Cc1ccc(F)cc1)NCCN1CCN(c2nc(Cc3ccc(F)cc3)ns2)CC1 [Compound 107, 2-(4-fluorophenyl)-N-{2-[4-[3-(4-fluorobenzyl)-1,2,4-thiadiazol-5-yl]piperazin-1-yl]ethyl}acetamide]	–	80	–
CCCCCc1ccc(C(=O)N2CCN(c3nc(Cc4ccc(C)cc4)ns3)CC2C)cc1 (stereo not drawn) [Compound 134, 1-(4-pentylbenzoyl)-4-[3-(4-methylbenzyl)-1,2,4-thiadiazol-5-yl]-2-methylpiperazine]	0.3	–	–
Cc1ccc(C(=O)N2CCN(c3nc(Cc4ccc(F)cc4)ns3)CC2C)cc1 (stereo not drawn) [Compound 139, 1-(4-methylbenzoyl)-4-[3-(4-fluorobenzyl)-1,2,4-thiadiazol-5-yl]-2-methylpiperazine]	0.4	–	–
CC1CN(c2nc(Cc3ccc(F)cc3)ns2)CCN1C(=O)c1cccc(Br)c1 (stereo not drawn) [Compound 142, 1-(3-bromobenzoyl)-4-[3-(4-fluorobenzyl)-1,2,4-thiadiazol-5-yl]-2-methylpiperazine]	0.5	–	–
CC1CN(c2nc(Cc3ccc(F)cc3)ns2)CCN1C(=O)c1cccc(C(F)(F)F)c1 (stereo not drawn) [Compound 145, 1-(3-trifluoromethylbenzoyl)-4-[3-(4-fluorobenzyl)-1,2,4-thiadiazol-5-yl]-2-methylpiperazine]	–	60	–
O=C(c1cccc(F)c1)N1CCN(c2nc(Cc3ccc(Cl)cc3)ns2)CC1 [Compound 157, 1-(3-fluorobenzoyl)-4-[3-(4-chlorobenzyl)-1,2,4-thiadiazol-5-yl]piperazine]	–	70	–
Cc1ccc(Cc2nsc(N3CCN(C(=O)c4ccc(Br)cc4)CC3)n2)cc1 [Compound 164, 1-(4-bromobenzoyl)-4-[3-(4-methylbenzyl)-1,2,4-thiadiazol-5-yl]piperazine]	–	60	–
O=C(c1ccccc1)N1CCN(c2nc(Cc3ccc(F)cc3)ns2)CC1 [Compound 181, 1-benzoyl-4-[3-(4-fluorobenzyl)-1,2,4-thiadiazol-5-yl]piperazine]	–	60	–
CCC(=O)Oc1ccc(S(=O)(=O)N2CCN(c3nc(Cc4ccc(F)cc4)ns3)CC2)cc1 [Compound 200, 1-(4-propionyloxy)benzene-sulfonyl-4-[3-(4-fluoro-benzyl)-1,2,4-thiadiazol-5-yl]piperazine]	–	80	–
COc1ccc(S(=O)(=O)N2CCN(c3nc(Cc4ccc(F)c(C)c4)ns3)CC2)cc1 [Compound 204]	0.001	90	–
COc1ccc(S(=O)(=O)N2CCN(c3nc(Cc4cccc(OC)c4)ns3)CC2C)cc1 (stereo not drawn) [Compound 208, 1-[4-methoxyphenylsulfonyl]-4-[3-(3-methoxybenzyl)-1,2,4-thia-diazol-5-yl]-2-methyl-piperazine]	–	–	% inh. (M17-SYNwt cells; [4]): 92%
O=S(=O)(c1ccc(O)cc1)N1CCN(c2nc(Cc3ccc(F)cc3)ns2)CC1 [Compound 217, 1-(4-hydroxybenzenesulfonyl)-4-[3-(4-fluoro-benzyl)-1,2,4-thiadiazol-5-yl]piperazine]	0.033	–	–
O=S(=O)(c1cccs1)N1CCN(c2nc(Cc3ccc(F)cc3)ns2)CC1 [Example 50, 1-[thiophen-2-ylsulfonyl]-4-[3-(4-fluoro-benzyl)-1,2,4-thiadiazol-5-yl]piperazine]	–	–	EC50 (M17-SYNwt cells; [4]): 0.468 µM; % inh. (M17-SYNwt cells; [4]): 89%
